The source of these data is ChEMBL document CHEMBL1146058, “Discovery of trans-3,4'-bispyridinylethylenes as potent and novel inhibitors of protein kinase B (PKB/Akt) for the treatment of cancer: Synthesis and biological evaluation” (Bioorg Med Chem Lett, 2006).

pIC50: −log10 of the molar value. A value given as a limit tells only on which side of the number the result lay.

For orientation: inhibition means the relative decrease from the control value, in per cent. What is called Cmax is the peak of the concentration-time curve. The bioavailability is dose-corrected exposure relative to a reference, in per cent. By half-life is commonly meant the time in which the quantity being followed falls by half. Broadly, the clearance is a measure of how efficiently the substance is removed, as volume per time. As a reminder, the pIC50 is the IC50 on a negative log10 scale, so that one unit is a factor of ten.

In data set [1] the target is T1, RAC-alpha serine/threonine-protein kinase (Homo sapiens, UniProt P31749). Nature of the data set: Inhibition of Akt1 at 0.99 uM.
Data set [2] concerns the target T1, RAC-alpha serine/threonine-protein kinase. Nature of the data set: Inhibition of Akt1 at 5.33 uM.
Data set [3] is described as follows: Cmax in mouse at 10 mg/kg. It counts as ADME, organism-based. Also noted: dose 10 mg/kg. Conditions: in vivo.
Data set [4] can be described thus: Oral bioavailability in mouse at 10 mg/kg. It counts as ADME, organism-based. Conditions: in vivo.
Data set [5] in a line: Half life in mouse at 10 mg/kg. It counts as ADME, organism-based. Also noted: dose 10 mg/kg. The note with it: in vivo.
Data set [6] is described as follows: Volume of distribution in mouse at 10 mg/kg. It counts as ADME, organism-based. The note with it: in vivo, read-out: Vdss. Set-up: dose 10 mg/kg.
The nature of data set [7]: Plasma clearance in mouse at 10 mg/kg. It counts as ADME, organism-based. Set-up: dose 10 mg/kg.
The target in data set [8] is T1, RAC-alpha serine/threonine-protein kinase. Briefly: Inhibition of Akt1 using 10 uM ATP.
The nature of data set [9]: Half life in rat at 5 mg/kg. It counts as ADME, organism-based. Set-up: dose 5 mg/kg. Conditions: in vivo.
A short description of data set [10]: Volume of distribution in rat at 5 mg/kg. It counts as ADME, organism-based. The note with it: in vivo, read-out: Vdss. Also noted: dose 5 mg/kg.
Data set [11] in a line: Plasma clearance in rat at 5 mg/kg. It counts as ADME, organism-based. Set-up: dose 5 mg/kg.
Data set [12] can be described thus: Cmax in rat at 5 mg/kg. It counts as ADME, organism-based. Set-up: dose 5 mg/kg. The note with it: in vivo.
The nature of data set [13]: Oral bioavailability in rat at 5 mg/kg. It counts as ADME, organism-based. Conditions: in vivo.
Data set [14] can be described thus: Half life in mouse at 30 mg/kg. It counts as ADME, organism-based. Also noted: dose 30 mg/kg. Conditions: in vivo.
Data set [15] can be described thus: Volume of distribution in mouse at 30 mg/kg. It counts as ADME, organism-based. Set-up: dose 30 mg/kg. Conditions: in vivo, read-out: Vdss.
The nature of data set [16]: Plasma clearance in mouse at 30 mg/kg. Set-up: dose 30 mg/kg. It counts as ADME, organism-based.
Data set [17] can be described thus: Cmax in mouse at 30 mg/kg. It counts as ADME, organism-based. Set-up: dose 30 mg/kg. The note with it: in vivo.
Data set [18] in a line: Oral bioavailability in mouse at 30 mg/kg. It counts as ADME, organism-based. The note with it: in vivo.
Data set [19] can be described thus: Half life in dog at 2.5 mg/kg. Also noted: dose 2.5 mg/kg. It counts as ADME, organism-based, Canis lupus familiaris. The note with it: in vivo.
A short description of data set [20]: Volume of distribution in dog at 2.5 mg/kg. It counts as ADME, organism-based, Canis lupus familiaris. Set-up: dose 2.5 mg/kg. The note with it: in vivo, read-out: Vdss.
A short description of data set [21]: Plasma clearance in dog at 2.5 mg/kg. It counts as ADME, organism-based, Canis lupus familiaris. Set-up: dose 2.5 mg/kg.
Data set [22] is described as follows: Cmax in dog at 2.5 mg/kg. It counts as ADME, organism-based, Canis lupus familiaris. Also noted: dose 2.5 mg/kg. Conditions: in vivo.
Data set [23] is described as follows: Oral bioavailability in dog at 2.5 mg/kg. It counts as ADME, organism-based, Canis lupus familiaris. Conditions: in vivo.
Data set [24] can be described thus: Half life in monkey at 2.5 mg/kg. The note with it: rhesus monkey, in vivo. It counts as ADME, organism-based, Macaca mulatta. Also noted: dose 2.5 mg/kg.
Data set [25] in a line: Volume of distribution in monkey at 2.5 mg/kg. It counts as ADME, organism-based, Macaca mulatta. Set-up: dose 2.5 mg/kg. The note with it: rhesus monkey, in vivo, read-out: Vdss.
Data set [26] is described as follows: Plasma clearance in monkey at 2.5 mg/kg. It counts as ADME, organism-based, Macaca mulatta. The note with it: rhesus monkey. Set-up: dose 2.5 mg/kg.
Data set [27] is described as follows: Cmax in monkey at 2.5 mg/kg. Also noted: dose 2.5 mg/kg. Conditions: rhesus monkey, in vivo. It counts as ADME, organism-based, Macaca mulatta.
A short description of data set [28]: Oral bioavailability in monkey at 2.5 mg/kg. It counts as ADME, organism-based, Macaca mulatta. The note with it: rhesus monkey, in vivo.
The subject of a further data set is MIA PaCa-2. Briefly: Antiproliferative activity against MiaPaCa-2 cells by MTT assay. It counts as functional, cell-based. Conditions: Homo sapiens. (Formazan colour is commonly taken as a measure of viable cells.)
Data set [29] concerns the target T1, RAC-alpha serine/threonine-protein kinase. Nature of the data set: Inhibition of Akt1 at 50 uM.

T1 sequence (P31749 whole entry): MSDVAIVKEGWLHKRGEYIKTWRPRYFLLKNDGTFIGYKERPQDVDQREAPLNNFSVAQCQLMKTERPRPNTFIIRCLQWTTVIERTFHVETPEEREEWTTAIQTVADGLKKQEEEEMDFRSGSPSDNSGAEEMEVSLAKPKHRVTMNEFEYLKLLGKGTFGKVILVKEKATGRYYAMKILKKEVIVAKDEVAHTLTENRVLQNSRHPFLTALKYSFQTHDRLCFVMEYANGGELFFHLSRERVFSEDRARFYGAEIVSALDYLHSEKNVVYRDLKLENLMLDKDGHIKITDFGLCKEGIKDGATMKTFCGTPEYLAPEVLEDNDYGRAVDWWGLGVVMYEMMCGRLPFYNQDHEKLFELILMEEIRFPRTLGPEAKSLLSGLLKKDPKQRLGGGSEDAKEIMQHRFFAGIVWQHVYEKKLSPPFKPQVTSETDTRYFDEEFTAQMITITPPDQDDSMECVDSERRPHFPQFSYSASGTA

In data set [1], `N[C@@H](Cc1c[nH]cn1)C(=O)Nc1cncc(/C=C/c2ccncc2)c1` registered an inhibition of 73%.

For `N[C@H](COc1cncc(/C=C/c2ccccc2)c1)Cc1c[nH]c2ccccc12`, the inhibition in data set [2] is 17%.

`N[C@H](CCc1cnc(Cl)c(/C=C/c2ccncc2)c1)Cc1c[nH]c2ccccc12` displayed a maximum concentration (Cmax) in data set [3] of 90 ng/mL. The bioavailability in [4] was < 10%. Also, in data set [5], the half-life is 0.2 h. Further, the Vd in [6] worked out at 4.9 L/kg. In [7], this compound gave a clearance of 288 mL/min/kg.

In the case of `C(=C\c1cncc(OCCCc2c[nH]c3ccccc23)c1)/c1ccncc1`, the negative-log IC50 (pIC50) in data set [8] was < 4.30.

The compound `N[C@H](COc1cncc(/C=C/c2ccncc2)c1)C(=O)O` gave an inhibition in data set [2] of 11%.

Turning to `N[C@H](COc1cncc(/C=C/c2ccncc2)c1)Cc1csc2ccccc12`, the half-life in data set [9] was 2.5 h. Also, the Vd in [10] came out at 3.6 L/kg. This compound also showed a clearance in data set [11] of 16.7 mL/min/kg. In data set [12], the peak concentration (Cmax) was found to be 620 ng/mL. Also, in data set [13], the bioavailability is 43%.

In turn, `N[C@H](COc1cc(/C=C/c2ccncc2)ccn1)Cc1c[nH]c2ccccc12` came in with an inhibition in data set [2] of 16%.

As for `N[C@H](COc1cncc(/C=C/c2ccncc2)c1)C(=O)Nc1ccc2ccccc2c1`, in data set [2], the inhibition stood at 4%.

With `N[C@H](CNc1cnc(Cl)c(/C=C/c2ccncc2)c1)Cc1c[nH]c2ccccc12`, the peak concentration (Cmax) in [3] is < 20 ng/mL. Also, in data set [4], the bioavailability amounted to 0%. In data set [5], this compound had a half-life of 0.6 h. Further, the Vd in [6] came out at 9.5 L/kg. This compound also gave a clearance in data set [7] of 190 mL/min/kg.

In [2], `N[C@H](COc1cccc(/C=C/c2ccncc2)c1)Cc1c[nH]c2ccccc12` had an inhibition of 35%.

With `N[C@H](COc1cnc(Cl)c(/C=C/c2ccncc2)c1)Cc1c[nH]c2ccccc12`, the half-life in data set [14] was 0.8 h; in data set [19] it was 5.4 h; in data set [24], 3 h; in data set [9] it was 3.1 h. The Vd in data set [15] turned out to be 4.8 L/kg; in data set [20] it was 11.1 L/kg; in data set [25], 4.2 L/kg; in [10], 9.9 L/kg. The clearance was 68.3 mL/min/kg in [16], 23.3 mL/min/kg in data set [21], 16.2 mL/min/kg in [26] and 36.7 mL/min/kg in data set [11]. The peak concentration (Cmax) in data set [17] was 940 ng/mL; in data set [22], 120 ng/mL; in data set [27], 60 ng/mL; in data set [12] it was 60 ng/mL. Also, the bioavailability in data set [18] came to 11%; in data set [23] it was 45%; in [28] it was 12%; in data set [13], 17%.

Take `N[C@H](COc1cncc(/C=C/c2ccncc2)c1)Cc1c[nH]c2ccccc12`: the half-life was 0.8 h in [14], 3.2 h in [19], 3.7 h in [24] and 3.1 h in [9]. For the same compound, the Vd in data set [15] was found to be 6.5 L/kg; in data set [20], 12.8 L/kg; in data set [25], 9.1 L/kg; in data set [10], 5.2 L/kg. Also, the clearance is 95 mL/min/kg in data set [16], 41.7 mL/min/kg in [21], 26.7 mL/min/kg in data set [26] and 20 mL/min/kg in data set [11]. The Cmax in [17] was determined as 2780 ng/mL; in data set [22] it was 100 ng/mL; in data set [27], 40 ng/mL; in data set [12], 300 ng/mL. Moreover, the bioavailability worked out at 39% in data set [18], 52% in data set [23], 12% in data set [28] and 21% in data set [13]. This compound showed a pIC50 in the data set on MIA PaCa-2 of 4.92.

As for `N[C@H](COc1cnccc1/C=C/c1ccncc1)Cc1ccccc1`, the inhibition in data set [29] was 29%.
